Data on 5 molecules can be found in US20040225014A1, “Method for treating ocular hypertension and glaucoma” (SUCAMPO AG, priority 2003, published 2004).

For data set [1], the system named is Male C3H/HeN mice. The note with it: mouse, in vivo.
Excerpt: (§1) Male C3H/HeN mice of 7 weeks old (seven groups; three mice/group) were used. Following 1-week acclimation, hair on the back of mice was shaved. Two days after the shaving, applications of test compound (13,14-dihydro-15-keto-17-phenyl-18,19,20-trinor-PGF2α isopropyl ester), latanoprost(13,14-dihydro-17-phenyl-18,19,20-trinor-PGF2α isopropyl ester), and vehicle (70 w/w % EtOH) were initiated (Day 1). 0.005%, 0.01% or 0.03% of test compound, 0.005%, 0.01% or 0.03% of latanoprost, or vehicle were applied to the shaved area of the mice at a volume of 0.1 mL once daily for 30 days. The hair growth was scored according to the following criteria.
−: No hair growth observed
(§2) ±: Hair growth observed; less than 10% of shaving area
(§3) +: Hair growth observed; 10-30% of shaving area
(§4) ++: Hair growth observed; 30-50% of shaving area
(§5) +++: Hair growth observed; more than 50% of shaving area
Data set [2] has as its system eyelashes. The note with it: marketed eye drops for ocular hypertension and glaucoma; cited from earlier work.
Data set [3] relates to Male C3H/HeN mice. Briefly: Hair growth scoring after once daily topical application to the shaved back of mice for 30 days. The note with it: for Scores of hair growth: 0.1 mL once daily on shaved area, individual animals.
Excerpt: as §1
−: No hair growth observed
as §2, §3, §4, §5

Like-named read-outs stand apart in the source and are kept apart here.

With `CC(C)OC(=O)CCC/C=C\C[C@@H]1[C@@H](CC[C@@H](O)CCc2ccccc2)[C@H](O)C[C@@H]1O` [Latanoprost, 13,14-dihydro-17-phenyl-18,19,20-trinor-PGF2α isopropyl ester], in data set [1], the “Effect on the hair growth (summary in words)” value was “remarkable hair growth stimulation” and the “Scores of hair growth” value was “−”. Moreover, in data set [2], the “Eyelash hair growth (side effect of eye drops)” value (shortened to “Eyelash hair growth”) is “induce eyelash hair growth”.

On to `CCCCCCCC(=O)CC[C@@H]1[C@@H](C/C=C\CCCC(=O)OC(C)C)[C@@H](O)C[C@H]1O` [Rescula®, 13,14-dihydro-15-keto-20-ethyl-PGF2α isopropylester], for which the “Eyelash hair growth” value in data set [2] is recorded as “increases length of eyelashes”.

Take `CC(C)OC(=O)CCC/C=C\C[C@@H]1[C@@H](CCC(=O)CCc2ccccc2)[C@H](O)C[C@@H]1O` [Test compound, 13,14-dihydro-15-keto-17-phenyl-18,19,20-trinor-PGF2α isopropyl ester]: the “Scores of hair growth” value is recorded as “−” in data set [3] (0.005%, 19 days after first application); “−” in data set [3] (0.005%, 22 days after first application); “−” in data set [3] (0.005%, 23 days after first application); “−” in data set [3] (0.005%, 24 days after first application); “−” in data set [3] (0.005%, 25 days after first application); “−” in data set [3] (0.005%, 26 days after first application). For the same molecule, the “Scores of hair growth” value in data set [3] (0.005%, 29 days after first application) is on record as “−”; in data set [3] (0.005%, 30 days after first application) it was “−”; in data set [3] (0.01%, 19 days after first application) it was “−”; in data set [3] (0.01%, 22 days after first application), “−”; in data set [3] (0.01%, 23 days after first application) it was “−”; in data set [3] (0.01%, 24 days after first application) it was “−”. Besides, the “Scores of hair growth” value is “−” in data set [3] (0.01%, 25 days after first application); “−” in data set [3] (0.01%, 26 days after first application); “−” in data set [3] (0.01%, 29 days after first application); “−” in data set [3] (0.01%, 30 days after first application); “−” in data set [3] (0.03%, 19 days after first application); “−” in data set [3] (0.03%, 22 days after first application). In addition, the “Scores of hair growth” value was “−” in data set [3] (0.03%, 23 days after first application); “−” in data set [3] (0.03%, 24 days after first application); “−” in data set [3] (0.03%, 25 days after first application); “−” in data set [3] (0.03%, 26 days after first application); “−” in data set [3] (0.03%, 29 days after first application); “−” in data set [3] (0.03%, 30 days after first application). For the same molecule, the “Effect on the hair growth (summary in words)” value in data set [3] (any concentration tested (0.005%, 0.01%, 0.03%), once daily for 30 days) is reported as “no effects on the hair growth”.

In the case of `CCNC(=O)CCC/C=C\C[C@@H]1[C@@H](/C=C/[C@@H](O)CCc2ccccc2)[C@H](O)C[C@@H]1O` [bimatoprost, 17-phenyl 18,19,20-trinor PGF2α-N-ethylamide], the “Eyelash hair growth” value in data set [2] is on record as “induce eyelash hair growth”.

Turning to `CC(C)OC(=O)CCC/C=C\C[C@@H]1[C@@H](/C=C/[C@@H](O)COc2cccc(C(F)(F)F)c2)[C@H](O)C[C@@H]1O` [travoprost, 16-(3-trifluoromethylphenoxy)-17,18,19,20-tetranor PGF2α isopropyl ester], the “Eyelash hair growth” value in data set [2] is on record as “induce eyelash hair growth”.
